Cc1c(C(=O)c2c[nH]n(C)c2=O)ccc(S(C)(=O)=O)c1C1=NOCC1
solubility (mole fraction)
Settings	283.15 K	288.15 K	293.15 K	298.15 K	303.15 K	308.15 K	313.15 K	318.15 K	323.15 K
in THF	0.00274	0.0031	0.00351	0.00397	0.00449	0.00509	0.00576	0.00652	0.00738
in acetone	0.00112	0.0013	0.00151	0.00176	0.00204	0.00236	0.00274	0.00318	0.0037
in acetonitrile	0.000648	0.000778	0.000934	0.00112	0.00134	0.00161	0.00194	0.00232	0.00279
in ethanol	6.16e-05	8.08e-05	0.000106	0.000139	0.000182	0.000239	0.000314	0.000412	0.000541
in ethyl acetate	0.000521	0.000624	0.000747	0.000894	0.00107	0.00128	0.00153	0.00183	0.0022
in isobutanol	4.16e-05	5.6e-05	7.53e-05	0.000101	0.000137	0.000184	0.000247	0.000333	0.000449
in isobutyl acetate	0.000421	0.000481	0.000549	0.000627	0.000716	0.000818	0.000934	0.00107	0.00122
in isopropanol	3.8e-05	5.11e-05	6.87e-05	9.23e-05	0.000124	0.000167	0.000224	0.000302	0.000405
in isopropyl acetate	0.000297	0.000353	0.00042	0.000499	0.000594	0.000706	0.000839	0.000997	0.00119
in methanol	0.000139	0.000173	0.000215	0.000267	0.000333	0.000414	0.000516	0.000642	0.000799
in methyl acetate	0.000989	0.00116	0.00135	0.00157	0.00184	0.00215	0.00251	0.00293	0.00342
in n-butanol	6.22e-05	8.09e-05	0.000105	0.000137	0.000178	0.000232	0.000301	0.000392	0.00051
in n-butyl acetate	0.000355	0.000419	0.000495	0.000584	0.00069	0.000815	0.000962	0.00114	0.00134
in n-propanol	5.61e-05	7.35e-05	9.63e-05	0.000126	0.000165	0.000217	0.000284	0.000372	0.000488
in n-propyl acetate	0.000415	0.000496	0.000594	0.00071	0.000849	0.00101	0.00121	0.00145	0.00173
in toluene	0.000256	0.0003	0.00035	0.00041	0.000479	0.00056	0.000655	0.000766	0.000895
